In ChEMBL document CHEMBL1144061, “Biologically active triterpene saponins from callus tissue of Polygala amarella” (J Nat Prod, 1999) one finds Activity data, which are given here for one molecule.

Structures are written as SMILES.

Data set [1] in a line: Cytotoxicity against human granulocytes upto 100 ug/mL.
The nature of data set [2]: Induction of human granulocyte phagocytosis at 10 to 100 ug/mL. The data set is classed as functional.

Turning to `C[C@H]1O[C@@H](OC(=O)[C@]23CCC(C)(C)C[C@H]2C2=CC[C@@H]4[C@@]5(C)C[C@H](O)C(O[C@@H]6O[C@H](CO)[C@@H](O)[C@H](O)[C@H]6O)[C@@](C)(C(=O)O)[C@@H]5CC[C@@]4(C)[C@]2(CO)CC3)[C@H](O[C@@H]2O[C@H](C)[C@H](O[C@@H]3OC[C@@H](O)[C@H](O[C@@H]4O[C@H](CO)[C@H](O)[C@H](O)[C@H]4O)[C@H]3O)[C@@H](O)[C@H]2O)[C@@H](O[C@@H]2O[C@H](CO)[C@@H](O)[C@H](O)[C@H]2O)[C@H]1O` (some centres not stated), the values for the Activity result in data set [1] and in data set [2] were “Non-toxic” and 60%, respectively.
